We go through 1 compound from patent US20220354911A1, “TREATMENT OF TUMORS BY A COMBINATION OF AN ONCOLYTIC ADENOVIRUS, A CDK4/6 INHIBITOR AND A FURTHER THERAPEUTICALLY ACTIVE AGENT” (KLINIKUM RECHTS DER ISAR DER TECHNISCHEN UNIVERSITÄT MÜNCHEN, priority 2019, published 2022).

Structures are written as SMILES.

In one test the test system is T24 cells. Nature of the test: Potency assay (SRB), XVir-N-31, Palbociclib and JQ-1. Format: cell-based, human. The procedure: 5000 T24 cells were seeded in 12 well plates and grown in 1 ml RPMI-Medium containing 10% FCS. Next day cells were treated with 500 nM Palbociclib and 300 nM JQ-1. 24 hours post treatment cells were infected with indicated MOIs of XVir-N-31 in 200 μl RPMI-Medium containing no FCS. After 1 hour 800 μl RPMI-Medium containing 10% FCS were added into each well. In addition, 500 nM Palbociclib and 300 nM JQ-1 were added to the medium. SRB-Staining took place 5 days post infection. Mock treated cells were set 100% cell survival.

For another test, the system named is LN229 cells. As to the kind of experiment: Western blot of XVir-N-31 infected LN229 cells, LEE011 and JQ1. Format: cell-based. The procedure:
2.5×10^5 LN229 cells were seeded in 10 cm plates in DMEM medium. The following day the cells were treated with 500 nM LEE011 and 200 nM JQ1 or a combination of both. At the next morning the cells were infected with XVir-N-31 at 20 MOI. One hour after infection DMEM Medium containing the inhibitors was added on the cells. After each time point (24, 48, 72 hours) the cells were put on ice, washed twice with ice-cold PBS and 300 μl of SDS Protein Lysis Buffer was added. The cells were transferred to reaction tubes and the DNA sheared with a syringe and a needle and the supernatant transferred for further use after centrifugation. The protein concentration was measured with a BCA assay and samples with 4× Lämmli:DTT 6:1 and a concertation of 20 μg were produced and transferred to a 10% SDS gel. The gel electrophoresis started at 90V and was increased to 150V after the ladder started to separate. The proteins on the gel were blotted to a membrane for 2 hours at 100V and blocked in 5% milk in TBS-T for 1 hour at RT. After washing in TBS-T, the first antibody was added according to the manufacturer's information over night at 4° C. The used antibodies were directed to GAPDH, E1A, DBP, E2F1, Rb, pRb for all time points, and caspase 3 and the full length and cleaved version of PARP additionally for the 72 hours samples. The next day, the washing was repeated and the secondary antibody added for 1 hour at RT. Following the washing, ECL was used to image the chemiluminescence by the ChemiDoc™ MP Imaging System.
For orientation: In western blotting, separated proteins are transferred to a membrane and probed.

The subject of test [1] is XVir-N-31. As to the kind of experiment: Hexon Titer test, particle formation of XVir-N-31 in UMUC-3 cells. Format: cell-based, Mastadenovirus, Type C, Serotype 5. The procedure:
The production of viral particles was analyzed via immunohistochemistry-staining of hexon proteins (Hexon Titer test). Therefor, 2×10^5 adherent HEK293 cells per well were seeded in 24-well plates. Cell cultures samples collected after indicated time-points post infection and indicated co-treatment with JQ-1 were pretreated with three cycles thaw-freeze to release viral particles from cells and then serially diluted. The HEK293 cells were infected in volumes of either 50 μl or 10 μl per sample. The plates were then incubated for 40 h at 37° C. and 10% CO2 before checking for detectable cytopathic effects. The medium was aspirated, and the plates were dried for 5-10 min before fixing the cells by adding ice-cold methanol for 10 min at −20° C. The wells were washed twice with PBS+1% BSA. The primary antibody (goat anti-hexon, 1:500) was added and the plates were incubated for 1 h at 37° C. before washing it twice with PBS+1% BSA. Next, the secondary antibody (Rabbit Anti-Goat HRP conjugate, 1:1000) was added and incubated for 1 h at 37° C. Again, the wells were washed twice with PBS containing 1% BSA before the DAB solution was added. After 30 min incubation, 10 different random fields of view (f.o.v.) per well were counted under the 20× objective of a microscope. Counting iterations were averaged and according to this formula, infectious particles per ml were calculated: […]

In test [2] the test system is XVir-N-31. As to the kind of experiment: XVir-N-31 fiber DNA qPCR in glioblastoma cells, JQ1 and Ribociclib. Format: cell-based, Mastadenovirus, Type C, Serotype 5. As to conditions: U87 24 h.p.i., LN229 and T98G 48 h.p.i. The procedure:
1×10^5 cells were seeded in 6 well plates in DMEM medium. The following day the cells were treated with the 500 nM LEE011 and 50 nM JQ1. At the next morning the cells were infected with 20 MOI for U87 and LN229, and 50 MOI for T98G respectively. One hour after infection DMEM Medium containing the inhibitors was added onto the cells. After each time point (4, 24, 48 hours) the cells were washed once with PBS and 200 μl of SDS DNA Lysis Buffer was added. The cells were incubated with Proteinase K for 1 hour before undergoing a phenol-chloroform-isoamylalcohol purification. The DNA was diluted in 1×TE buffer and the concentration of the DNA was determined using a Nanodrop. For each sample a solution of 10 ng/μl was prepared and a RT-qPCR using 50 ng of DNA and a GoTaq Master mix. Specific Fiber forward and reverse primers were used and for the calculation of the Δ ct value specific Actin primers were used as well. For each sample 3 Fiber and 2 Actin values were measured. The calculation was done in excel and each 24 and 48 hours was calculated based on its 4 hours value (initial viral entry, before replication).

A further test relates to UMUC-3 and RT112. Nature of the test: FACS cell cycle analysis, JQ-1 and Palbociclib. Format: cell-based, human. As to conditions: 100 or 300 nM JQ-1, 500 nM Palbociclib. On the procedure: For such purpose, 5×10^4 cells UMUC-3 and RT112, respectively, were seeded in 6-well plates and 24 hours later treated with appropriate inhibitors. 1 day later, at approximately 80% confluency, cells were washed with PBS, trypsinized, washed again and fixated with icecold 80% ethanol. For cell cycle analysis, samples were incubated with the DNA-intercalating dye 7-aminoactinomycine D (7-AAD) and measured via FACS analysis. Evaluation of measured data was performed via the software FlowJo.

The mark [3] stands for this setting: LN229, with XVir-N-31, 48 hours post infection.
Setting [4] is: LN229, with XVir-N-31, 72 hours post infection.

Turning to `Cc1sc2c(c1C)C(c1ccc(Cl)cc1)=N[C@@H](CC(=O)OC(C)(C)C)c1nnc(C)n1-2` [JQ-1, thieno-triazolo-1-4-diazepine], the “cell killing of XVir-N-31, JQ-1 monotherapy” value in the test with T24 cells (T24, 300 nM JQ-1 alone, 10 and 20 MOI) is “did not increase cell killing”. Besides, the “cell killing capacity of XVir-N-31 in combination with Palbociclib” value with T24 cells (T24, 500 nM Palbociclib, 300 nM JQ-1, low MOIs, 5 days post infection) is listed as “increased the cell killing capacity”. The “viral proteins E1A and DBP” value is on record as “increased” with LN229 cells (LN229, XVir-N-31 MOI 20, 500 nM LEE011 or/and 200 nM JQ-1, 24 hours post infection); “increased” in the test with LN229 cells (LN229, XVir-N-31 MOI 20, 500 nM LEE011 or/and 200 nM JQ-1, 48 hours post infection); “increased” in the test on LN229 cells (LN229, XVir-N-31 MOI 20, 500 nM LEE011 or/and 200 nM JQ-1, 72 hours post infection). In addition, the “cellular proteins Rb and pRb” value is “remained inhibited” with LN229 cells (LN229, with XVir-N-31, 24 hours post infection) and “remained inhibited” in the test on LN229 cells (setting [3]). The E2F-1 entry in the test with LN229 cells (setting [3]) is “stabilized”. The E2F1 result in the test with LN229 cells (setting [4]) is recorded as “enhanced”. Moreover, the “cellular protein Rb” value in the test on LN229 cells (setting [4]) was “decreased”. For the same compound, the “presence of cleaved PARP” value in the test with LN229 cells (XVir-N-31 infected LN229 cells, 72 hours post infection) is listed as “increased”. The “particle formation of XVir-N-31” value with XVir-N-31 [1] (500 nM JQ-1, 39, 49, 62 or 72 hpi) is on record as “significantly increased”. The “kinetic of XVir-N-31's particle formation” value in the test with XVir-N-31 [1] (concurrent treatment with 500 nM JQ-1) is “highly accelerated”. The “XVir-N-31 replication (relative fiber DNA)” value in the test on XVir-N-31 [2] is given as “high increase in replication”. Also, in the test on UMUC-3 and RT112, the cell cycle result is “no significant influence on the cell cycle”.
